Our source for the IC50 values is US10745382B2 (BRISTOL-MYERS SQUIBB COMPANY, priority 2015, dated 2020).

Structures are written as SMILES.

In this assay the target is T1, PD-1/PD-L1 (Homo sapiens, UniProt Q9NZQ7).
T1 construct: made in house; host or cells: HEK293T
T1 sequence (Q9NZQ7 with tags, fused parts or gaps): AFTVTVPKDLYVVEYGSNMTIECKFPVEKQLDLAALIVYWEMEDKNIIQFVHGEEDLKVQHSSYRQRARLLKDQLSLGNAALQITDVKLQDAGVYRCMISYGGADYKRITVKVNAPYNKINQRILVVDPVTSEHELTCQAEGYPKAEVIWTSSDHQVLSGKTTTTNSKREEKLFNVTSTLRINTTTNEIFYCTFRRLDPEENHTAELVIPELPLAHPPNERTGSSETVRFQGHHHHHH
Briefly: PD-1/PD-L1 Homogenous Time-Resolved Fluorescence (HTRF) binding assay. To be noted: PD-L1-His 10 nM, PD-1-Ig 20 nM; value given as range class; read-out: Range or IC50. An outline of the steps:
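dPBS + 0.1% BSA + 0.05% Tween-20 buffer; Eu-cryptate anti-Ig 1 nM final, APC anti-His 20 nM final; HTRF read. Counter-assays: PD-1-Ig/PD-L2-His 20 & 5 nM, CD80-His/PD-L1-Ig 100 & 10 nM.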
In general terms: TR-FRET usually uses a lanthanide donor and a delayed reading to cut background.
With `Cc1c(COc2cc(OCc3cncc(C#N)c3)c(CN[C@](C)(CO)C(=O)O)cc2Cl)cccc1-c1cccc(OCCCN2CCCC(CO)C2)c1Cl` (stereo partly drawn) [Example 2043, (2R)-2-((5-chloro-4-((2′-chloro-3′-(3-(3-(hydroxymethyl)piperidin-1-yl)propoxy)-2-methyl-[1,1′-biphenyl]-3-yl)methoxy)-2-((5-cyanopyridin-3-yl)methoxy)benzyl)amino)-3-hydroxy-2-methylpropanoic Acid], the IC50 is 0.21 to 10 nM. On to `Cc1c(COc2cc(OCc3cncc(C#N)c3)c(CO)cc2Cl)cccc1-c1cccc(OCCCN2CCCC(CO)C2)c1Cl` (stereo not drawn) [Example 2044, 5-((4-chloro-5-((2′-chloro-3′-(3-(3-(hydroxymethyl)piperidin-1-yl)propoxy)-2-methyl-[1,1′-biphenyl]-3-yl)methoxy)-2-(hydroxymethyl)phenoxy)methyl)nicotinonitrile], for which the half-maximal inhibitory concentration (IC50) lay in the range of 0.21 to 10 nM. For `N#Cc1cncc(COc2cc(OCc3cccc(-c4cccc(OCCCN5CCCCC5)c4Cl)c3Cl)c(Cl)cc2CN2CCCC[C@H]2C(=O)O)c1` [Example 2045, (S)-1-(5-chloro-2-((5-cyanopyridin-3-yl)methoxy)-4-((2,2′-dichloro-3′-(3-(piperidin-1-yl)propoxy)-[1,1′-biphenyl]-3-yl)methoxy)benzyl)piperidine-2-carboxylic Acid] the value was 0.21 to 10 nM; for `N#Cc1cncc(COc2cc(OCc3cccc(-c4cccc(OCCCN5CCCCC5)c4Cl)c3Cl)c(Cl)cc2CO)c1` [Example 2046, 5-((4-chloro-5-((2,2′-dichloro-3′-(3-(piperidin-1-yl)propoxy)-[1,1′-biphenyl]-3-yl)methoxy)-2-(hydroxymethyl)phenoxy)methyl)nicotinonitrile], 0.21 to 10 nM; for `CC(=O)NC1CCN(CCCOc2cccc(-c3cccc(COc4cc(OCc5cncc(C#N)c5)c(CN5CCCC[C@H]5C(=O)O)cc4Cl)c3Cl)c2Cl)C1` (stereo partly drawn) [Example 2047, (2S)-1-(4-((3′-(3-(3-acetamidopyrrolidin-1-yl)propoxy)-2,2′-dichloro-[1,1′-biphenyl]-3-yl)methoxy)-5-chloro-2-((5-cyanopyridin-3-yl)methoxy)benzyl)piperidine-2-carboxylic Acid], 0.21 to 10 nM. For `Cc1c(COc2cc(OCc3cncc(C#N)c3)c(CN[C@](C)(CO)C(=O)O)cc2Cl)cccc1-c1cccc(OCCCNC[C@H](O)CO)c1Cl` [Example 2048, (R)-2-((5-chloro-4-((2′-chloro-3′-(3-(((S)-2,3-dihydroxypropyl)amino)propoxy)-2-methyl-[1,1′-biphenyl]-3-yl)methoxy)-2-((5-cyanopyridin-3-yl)methoxy)benzyl)amino)-3-hydroxy-2-methylpropanoic Acid] the value was 0.21 to 10 nM; for `N#Cc1cncc(COc2cc(OCc3cccc(-c4cccc(OCCCNC[C@H](O)CO)c4Cl)c3Cl)c(Cl)cc2CN2CCCC[C@H]2C(=O)O)c1` [Example 2049, (S)-1-(5-chloro-2-((5-cyanopyridin-3-yl)methoxy)-4-((2,2′-dichloro-3′-(3-(((S)-2,3-dihydroxypropyl)amino)propoxy)-[1,1′-biphenyl]-3-yl)methoxy)benzyl)piperidine-2-carboxylic Acid], 0.21 to 10 nM; for `Cc1c(COc2cc(OCc3cncc(C#N)c3)c(CNC(CO)CO)cc2Cl)cccc1-c1cccc(OCCCN(C)C[C@H](O)CO)c1Cl` [Example 2050, (S)-5-((4-chloro-5-((2′-chloro-3′-(3-((2,3-dihydroxypropyl)(methyl)amino)propoxy)-2-methyl-[1,1′-biphenyl]-3-yl)methoxy)-2-(((1,3-dihydroxypropan-2-yl)amino)methyl)phenoxy)methyl)nicotinonitrile], 0.21 to 10 nM.

In the case of `Cc1c(COc2cc(OCc3cncc(C#N)c3)c(CNC(CO)CO)cc2Cl)cccc1-c1cccc(OCCCN2CCCCC2)c1Cl` [Example 2051, 5-((4-chloro-5-((2′-chloro-2-methyl-3′-(3-(piperidin-1-yl)propoxy)-[1,1′-biphenyl]-3-yl)methoxy)-2-(((1,3-dihydroxypropan-2-yl)amino)methyl)phenoxy)methyl)nicotinonitrile], the IC50 is 0.21 to 10 nM. For `CC(=O)NC1CCN(CCCOc2cccc(-c3cccc(COc4cc(OCc5cncc(C#N)c5)c(CNC(CO)CO)cc4Cl)c3C)c2Cl)C1` (stereo not drawn) [Example 2052, N-(1-(3-((2-chloro-3′-((2-chloro-5-((5-cyanopyridin-3-yl)methoxy)-4-(((1,3-dihydroxypropan-2-yl)amino)methyl)phenoxy)methyl)-2′-methyl-[1,1′-biphenyl]-3-yl)oxy)propyl)pyrrolidin-3-yl)acetamide] the value was 0.21 to 10 nM; for `CC(CO)(CO)NCc1cc(Cl)c(OCc2cccc(-c3cccc(OCCCN4CC[C@@H](O)C4)c3Cl)c2Cl)cc1OCc1cncc(C#N)c1` [Example 2053, (R)-5-((4-chloro-5-((2,2′-dichloro-3′-(3-(3-hydroxypyrrolidin-1-yl)propoxy)-[1,1′-biphenyl]-3-yl)methoxy)-2-(((1,3-dihydroxy-2-methylpropan-2-yl)amino)methyl)phenoxy)methyl)nicotinonitrile], 0.21 to 10 nM; for `CC(CO)(CO)NCc1cc(Cl)c(OCc2cccc(-c3cccc(OCCCNC[C@H](O)CO)c3Cl)c2Cl)cc1OCc1cncc(C#N)c1` [Example 2054, (S)-5-((4-chloro-5-((2,2′-dichloro-3′-(3-((2,3-dihydroxypropyl)amino)propoxy)-[1,1′-biphenyl]-3-yl)methoxy)-2-(((1,3-dihydroxy-2-methylpropan-2-yl)amino)methyl)phenoxy)methyl)nicotinonitrile], 0.21 to 10 nM. For `CC(CO)(CO)NCc1cc(Cl)c(OCc2cccc(-c3cccc(OCCCN4CC[C@@H](O)C4)c3Cl)c2Cl)cc1OCc1cc(C#N)ccc1F` [Example 2055, (R)-3-((4-chloro-5-((2,2′-dichloro-3′-(3-(3-hydroxypyrrolidin-1-yl)propoxy)-[1,1′-biphenyl]-3-yl)methoxy)-2-(((1,3-dihydroxy-2-methylpropan-2-yl)amino)methyl)phenoxy)methyl)-4-fluorobenzonitrile] the value was 0.21 to 10 nM. The result for `Cc1c(COc2cc(OCc3cncc(C#N)c3)c(CNC(CO)CO)cc2Cl)cccc1-c1cccc(OCCCN2CCC(O)(C(=O)O)CC2)c1Cl` [Example 2056, 1-(3-((2-chloro-3′-((2-chloro-5-((5-cyanopyridin-3-yl)methoxy)-4-(((1,3-dihydroxypropan-2-yl)amino)methyl)phenoxy)methyl)-2′-methyl-[1,1′-biphenyl]-3-yl)oxy)propyl)-4-hydroxypiperidine-4-carboxylic Acid] reads 0.21 to 10 nM; that for `Cc1c(COc2cc(OCc3cncc(C#N)c3)c(CN(C)C(CO)CO)cc2Cl)cccc1-c1cccc(OCCCNC[C@H](O)CO)c1Cl` [Example 2057, (S)-5-((4-chloro-5-((2′-chloro-3′-(3-((2,3-dihydroxypropyl)amino)propoxy)-2-methyl-[1,1′-biphenyl]-3-yl)methoxy)-2-(((1,3-dihydroxypropan-2-yl)(methyl)amino)methyl)phenoxy)methyl)nicotinonitrile], 0.21 to 10 nM; that for `C[C@](CO)(NCc1cc(Cl)c(OCc2cccc(-c3cccc(OCCCN4CCCCC4)c3Cl)c2Cl)cc1OCc1cncc(C#N)c1)C(=O)O` [Example 2058, (R)-2-((5-chloro-2-((5-cyanopyridin-3-yl)methoxy)-4-((2,2′-dichloro-3′-(3-(piperidin-1-yl)propoxy)-[1,1′-biphenyl]-3-yl)methoxy)benzyl)amino)-3-hydroxy-2-methylpropanoic Acid], 0.21 to 10 nM.

With `CC(CO)(CO)NCc1cc(Cl)c(OCc2cccc(-c3cccc(OCCCN4CC[C@@H](O)C4)c3Cl)c2Cl)cc1OCc1cccc(C#N)c1` [Example 2059, (R)-3-((4-chloro-5-((2,2′-dichloro-3′-(3-(3-hydroxypyrrolidin-1-yl)propoxy)-[1,1′-biphenyl]-3-yl)methoxy)-2-(((1,3-dihydroxy-2-methylpropan-2-yl)amino)methyl)phenoxy)methyl)benzonitrile], the IC50 is 0.21 to 10 nM. With `CC(CO)(CO)NCc1cc(Cl)c(OCc2cccc(-c3cccc(OCCCNC[C@H](O)CO)c3Cl)c2Cl)cc1OCc1cccc(C#N)c1` [Example 2060, (S)-3-((4-chloro-5-((2,2′-dichloro-3′-(3-((2,3-dihydroxypropyl)amino)propoxy)-[1,1′-biphenyl]-3-yl)methoxy)-2-(((1,3-dihydroxy-2-methylpropan-2-yl)amino)methyl)phenoxy)methyl)benzonitrile], the IC50 was in the range of 0.21 to 10 nM. The result for `Cc1c(COc2cc(OCc3cncc(C#N)c3)c(CN[C@](C)(CO)C(=O)O)cc2Cl)cccc1-c1cccc(OCCCN2CCC(O)(CO)CC2)c1Cl` [Example 2061, (R)-2-((5-chloro-4-((2′-chloro-3′-(3-(4-hydroxy-4-(hydroxymethyl)piperidin-1-yl)propoxy)-2-methyl-[1,1′-biphenyl]-3-yl)methoxy)-2-((5-cyanopyridin-3-yl)methoxy)benzyl)amino)-3-hydroxy-2-methylpropanoic Acid] reads 0.21 to 10 nM. Regarding `CC(=O)NC1CCN(CCCOc2cccc(-c3cccc(COc4cc(OCc5cncc(C#N)c5)c(CNC(CO)CO)cc4Cl)c3C)c2Cl)CC1` [Example 2062, N-(1-(3-((2-chloro-3′-((2-chloro-5-((5-cyanopyridin-3-yl)methoxy)-4-(((1,3-dihydroxypropan-2-yl)amino)methyl)phenoxy)methyl)-2′-methyl-[1,1′-biphenyl]-3-yl)oxy)propyl)piperidin-4-yl)acetamide], the IC50 lay in the range of 0.21 to 10 nM.

In the case of `Cc1c(COc2cc(OCc3cncc(C#N)c3)c(CNC(CO)CO)cc2Cl)cccc1-c1cccc(OCCCN2CCC(O)(CO)CC2)c1Cl` [Example 2063, 5-((4-chloro-5-((2′-chloro-3′-(3-(4-hydroxy-4-(hydroxymethyl)piperidin-1-yl)propoxy)-2-methyl-[1,1′-biphenyl]-3-yl)methoxy)-2-(((1,3-dihydroxypropan-2-yl)amino)methyl)phenoxy)methyl)nicotinonitrile], the half-inhibitory concentration (IC50) fell in the range of 100 to 2000 nM.

One may read the IC50 as the concentration needed to halve the response being measured.
